Square brackets hold non-standard residues; d marks the D form. Peptide text beside a SMILES is read from it. * marks the point of attachment. Bz = O=C(c1ccccc1)*

For data set [1], the system named is human neutrophils. Briefly: cells. It is filed as cell-based. As to conditions: for IC50: Neutrophil. From the text:
Tables 5 and 6 explore whether there is an anti-inflamatory effect in the dipeptide derivatives. Because ferricytochrome c cannot penetrate cell membranes, it reacts with superoxide anion extracellularly. Also, there are absorptive reactions at 550 nm, and differences among the absorptive reactions can be used to evaluate the influence on the release of superoxide anion. The elastase is released by degranulation as the neutrophil is activated. Tables 5 and 6 use the substrate, MeO-Suc-Ala-Ala-Pro-Val-p-nitroanilide, with the specificity for reacting with the elastase so as to evaluate the influence of the candidate compound on the elastase release.
Blood was taken from healthy human donors (20-32 years old) by venipuncture, following a protocol approved by the Institutional Review Board at Chang Gung Memorial Hospital. Neutrophils were isolated by a standard method of dextran sedimentation prior to centrifugation in a Ficoll Hypaque gradient and the hypotonic lysis of erythrocytes.
The evaluation of O2.^− generation was based on the SOD-inhibitable reduction of ferricytochrome c. In brief, after supplementation with 0.5 mg ml^−1 ferricytochrome c and 1 mM Ca^2+, neutrophils were equilibrated at 37° C. for 2 min and incubated with drugs […].

Data set [2] relates to human neutrophils. Briefly: cells. It is filed as cell-based. As to conditions: Neutrophil, mean ± SEM. The procedure:
Degranulation of azurophilic granules was determined by elastase release as described above. Experiments were performed using MeO-Suc-[…]-nitroanilide as the elastase substrate. […] Results are expressed as the percentage of elastase release in the drug-free control group, DMSO. Tables 5 and 6 explore whether there is an anti-inflamatory effect in the dipeptide derivatives. Because ferricytochrome c cannot penetrate cell membranes, it reacts with superoxide anion extracellularly. Also, there are absorptive reactions at 550 nm, and differences among the absorptive reactions can be used to evaluate the influence on the release of superoxide anion. The elastase is released by degranulation as the neutrophil is activated. Tables 5 and 6 use the substrate, MeO-Suc-[…]-nitroanilide, with the specificity for reacting with the elastase so as to evaluate the influence of the candidate compound on the elastase release. Blood was taken from healthy human donors (20-32 years old) by venipuncture, following a protocol approved by the Institutional Review Board at Chang Gung Memorial Hospital. Neutrophils were isolated by a standard method of dextran sedimentation prior to centrifugation in a Ficoll Hypaque gradient and the hypotonic lysis of erythrocytes. […] The degranulation of azurophilic granules was determined by elastase release as described above. Experiments were performed using MeO-Suc-[…]-nitroanilide as the elastase substrate. Briefly, after supplementation with MeO-Suc-[…]-nitroanilide ([…] neutrophils (6×10^5 ml^-1) were equilibrated at 37° C. for 2 min and incubated with drugs for 5 min. […] The results are expressed as the percentage of elastase release in the drug-free control group.

Data set [3] concerns human neutrophils. Briefly: Cytotoxic test: lactate dehydrogenase (LDH) release from human neutrophils. The class given is cell-based. The method, then: FIGS. 1(a)-1(b) show the influences of HCH6-1 on releasing lactate dehydrogenase (LDH) from human neutrophils under the following experimental conditions. The suspension of neutrophils was reacted with different concentrations of candidate compounds for 15 min, or fixed concentrations of candidate compounds for various times. Also, 0.1% Triton X-100 was added to react for 30 min as a release amount of total lactate dehydrogenase (Total LDH), wherein the supernatant was subjected to centrifugation for 8 min, at 200 g and at 4° C., and then a lactate dehydrogenase reagent was added and kept in the dark and at room temperature for 30 min, and an absorbance at 492 nm was monitored. Results are measured based on Total LDH as 100%.

For data set [4], the system named is human neutrophils. Briefly: Expression of CD11b on the cell surface of activated neutrophils (flow cytometry). The class given is cell-based. The method, then:
The suspension of neutrophils was mixed at 37° C. and pre-heated for 5 min, and then compounds with different concentrations for measurements were added. […] And the reaction termination is done by on-ice setting. The supernatant was removed after centrifugation, and make the cells suspension again in the balanced salt solution containing bovine serum albumin (BSA). Anti-CD11b with fluorescein isothiocyanate (FITC) labeling was added, and kept on ice and in the dark. Finally, a balanced salt solution was added to terminate the reaction. By means of the flow cytometer for detecting the anti-CD11b with fluorescein isothiocyanate (FITC) labeling, it is possible to further evaluate whether the candidate compounds had influence on CD11b expression on the cell membranes of activated neutrophils according to changes in fluorescence. […].
(In flow cytometry, cells or beads pass a laser one at a time.)

Data set [5] has as its target T1, formyl peptide receptor 1 (FPR1) (Homo sapiens, UniProt P21462).
T1 construct: the effect of FNLFNYK combined with FPR1 on the membranes of human neutrophils; endogenous in cells; host or cells: human neutrophils
T1 sequence (P21462 1-350): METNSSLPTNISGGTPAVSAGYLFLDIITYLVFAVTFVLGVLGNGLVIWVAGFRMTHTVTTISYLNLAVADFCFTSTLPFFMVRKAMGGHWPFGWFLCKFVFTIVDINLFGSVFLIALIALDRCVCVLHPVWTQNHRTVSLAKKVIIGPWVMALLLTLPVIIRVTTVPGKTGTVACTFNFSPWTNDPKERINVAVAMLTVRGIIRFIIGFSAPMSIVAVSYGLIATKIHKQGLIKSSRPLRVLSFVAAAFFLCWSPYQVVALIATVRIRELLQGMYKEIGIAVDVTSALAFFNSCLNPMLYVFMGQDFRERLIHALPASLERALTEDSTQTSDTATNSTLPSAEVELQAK
Briefly: Receptor test: competition with fluorescent FNLFNYK for binding to FPR1 on human neutrophils. The following applies: membranes of human neutrophils; read-out: inhibition of FNLFNYK bound to FPR1, IC50. From the text:
Membranes of human neutrophils contain fMLF receptor, formyl peptide receptor 1 (FPR1), with which formyl-NIe-Leu-Phe-NIe-Tyr-Lys (FNLFNYK) carrying the fluorescence property was combined with FPR1 and competed with the candidate compound for receptor binding. Therefore, by binding with the receptor, it was possible to further clarify whether the compound interacts with the receptor.

`COC(=O)[C@@H](Cc1ccccc1)NC(=O)[C@H](Cc1c[nH]c2ccccc12)NC(=O)c1ccccc1` [Compound 3, N—(N-Benzoyl-L-tryptophanyl)-D-phenylalanine methyl ester] (Bz-Trp-[dF]-OMe) displayed a melting point of 174 to 176 °C. In data set [1] (WKYMVm, mean ± SEM, n = 4 or 8, Table 5, read-out: Superoxide anion WKYMVm IC50), the IC50 worked out at 4980 ± 270 nM. Moreover, the IC50 in data set [1] (WKYMVm/CB, mean ± SEM, n = 3, Table 4, read-out: WKYMVm/CB O2•− generation (IC50)) was 4830 ± 660 nM. Further, in data set [1] (human neutrophils triggered by fMLF, read-out: IC50 of inhibitory effect (superoxide anion, fMLF) restated in text), the IC50 was 320 ± 30 nM. Besides, the IC50 in data set [1] (human neutrophils, fMLF/CB, mean ± SEM, n = 3, Table 4, read-out: fMLF/CB O2•− generation (IC50)) stood at 230 ± 20 nM. Further, the IC50 in data set [1] (human neutrophils, fMLF, mean ± SEM, n = 4 or 8, Table 5, read-out: Superoxide anion fMLF IC50) is 320 ± 30 nM. Moreover, in data set [1] (human neutrophils, fMLP/CB, mean ± SEM, n = 3, Table 1, read-out: Anti-inflammation O2•− generation (IC50)), the IC50 stood at 230 ± 20 nM. Besides, the “selectivity for FPR1/2 and FPR1 (difference WKYMVm vs fMLF)” value in data set [1] (superoxide anion, WKYMVm vs fMLF) is given as 15 fold. Also, the IC50 in data set [2] (WKYMVm, n = 4 or 8, Table 6, read-out: Elastase release WKYMVm IC50) amounted to 5220 ± 700 nM. In addition, the IC50 in data set [2] (WKYMVm/CB, n = 3, Table 4, read-out: WKYMVm/CB NE release (IC50)) is 4610 ± 720 nM. Moreover, the IC50 in data set [2] (fMLF, n = 4 or 8, Table 6, read-out: Elastase release fMLF IC50) turned out to be 570 ± 70 nM. Moreover, the IC50 in data set [2] (fMLF/CB, n = 3, Table 4, read-out: fMLF/CB NE release (IC50)) came to 600 ± 70 nM. In addition, in data set [2] (fMLP/CB, n = 3, Table 1, read-out: Anti-inflammation NE release (IC50)), the IC50 was found to be 600 ± 70 nM. The “toxicity to cells (LDH release) during a long period” value in data set [3] (HCH6-1 30 μM, 120 min, FIG. 1(b)) is listed as “no significant toxicity”. In addition, in data set [3] (different concentrations, 15 min, FIG. 1(a)), the “toxicity to neutrophils (LDH release)” value is “not the results of toxicity to the neutrophils”. In addition, the IC50 in data set [4] (Homo sapiens, Neutrophil, stimulus of fMLF (30 nM)/CB, read-out: inhibition of CD11b expression on cell membranes, IC50) amounted to 260 ± 50 nM. Also, the “inhibition of CD11b expression on cell membranes” value in data set [4] (stimulus of IL-8 (100 nM), FIG. 2(n)) is recorded as “no inhibitory effects”. Further, the “inhibition of CD11b expression on cell membranes” value in data set [4] (stimulus of MMK1, FIG. 2(h)) is “no inhibitory effects”. In addition, the IC50 in data set [5] stood at 2020 ± 340 nM.

The melting point is the temperature of the solid-liquid transition.

These data come from patent US9593144B2, “FPR1 antagonist derivatives and use thereof” (CHANG GUNG UNIVERSITY, priority 2014, dated 2017).
